According to PubChem BioAssay AID248 (DTP/NCI, 2004):
Several values for one entry are separate records, joined by “and”; a condition that tells them apart may be missing. Equal entries are not always repeated. Inconclusive results and toxic doses are left out. Cut-off read from the data, not from the text of the source: active = T/C of 150% or more; inactive = T/C below 125%.

Tested on: L1210 leukemia ip in BDF1 mice, survival T/C
Test: NCI In Vivo Anticancer Drug Screen. Data for tumor model L1210 Leukemia (intraperitoneal) in B6D2F1 (BDF1) mice
Conditions: endpoint: mean survival time, higher = longer survival
Method in brief: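 Antitumor effect is assessed in tumor-bearing animals. Survival in the compound arm is compared with a vehicle-dosed control arm and expressed as their quotient.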

[1] = dose: 100.0 mg/kg/injection, schedule: Q04DX003 (ip), vehicle: water
[2] = dose: 100.0 mg/kg/injection, schedule: Q01DX001 (ip), vehicle: carboxymethylcellulose (CMC)
[3] = dose: 200.0 mg/kg/injection, schedule: Q01DX001 (ip), vehicle: carboxymethylcellulose (CMC)
[4] = dose: 400.0 mg/kg/injection, schedule: Q01DX001 (ip), vehicle: carboxymethylcellulose (CMC)
[5] = dose: 50.0 mg/kg/injection, schedule: Q01DX009 (ip), vehicle: saline with Tween-80
[6] = dose: 100.0 mg/kg/injection, schedule: Q01DX009 (ip), vehicle: saline with Tween-80
[7] = dose: 200.0 mg/kg/injection, schedule: Q01DX009 (ip), vehicle: saline with Tween-80
[8] = dose: 100.0 mg/kg/injection, schedule: Q04DX003 (ip), vehicle: Klucel (hydroxypropylcellulose) (HPC)
[9] = dose: 200.0 mg/kg/injection, schedule: Q04DX003 (ip), vehicle: Klucel (hydroxypropylcellulose) (HPC)
[10] = dose: 400.0 mg/kg/injection, schedule: Q04DX003 (ip), vehicle: Klucel (hydroxypropylcellulose) (HPC)
[11] = dose: 100.0 mg/kg/injection, schedule: Q01DX009 (ip), vehicle: Klucel (hydroxypropylcellulose) (HPC)
[12] = dose: 200.0 mg/kg/injection, schedule: Q01DX009 (ip), vehicle: Klucel (hydroxypropylcellulose) (HPC)
[13] = dose: 400.0 mg/kg/injection, schedule: Q01DX009 (ip), vehicle: Klucel (hydroxypropylcellulose) (HPC)

Measured: T/C

C[n+]1cc2c3ccccc3c(N)cc2c2ccccc21
inactive: dose: 6.25 mg/kg/injection, schedule: Q01DX009 (ip), vehicle: water 114 % of control | dose: 12.5 mg/kg/injection, schedule: Q01DX009 (ip), vehicle: water 118 % of control | dose: 25.0 mg/kg/injection, schedule: Q01DX009 (ip), vehicle: water 117 % of control | dose: 25.0 mg/kg/injection, schedule: Q04DX003 (ip), vehicle: water 118 % of control | dose: 50.0 mg/kg/injection, schedule: Q01DX009 (ip), vehicle: water 90 % of control | dose: 50.0 mg/kg/injection, schedule: Q04DX003 (ip), vehicle: water 98 % of control | [1] 93 % of control and 107 % of control

O=C(OC1CCCC2CCCC21)c1ccc([N+](=O)[O-])cc1 (configuration not stated)
inactive: [2] 93 % of control | [3] 95 % of control | [4] 98 % of control

COc1ccc(-c2ccc(CCNC(C)=O)cc2)cc1Cl
inactive: [2] 94 % of control | [3] 86 % of control | [4] 89 % of control

Cc1cccc(Nc2nc(N)nc(N)c2N)c1
inactive: dose: 25.0 mg/kg/injection, schedule: Q01DX Z (ip), vehicle: saline 101 % of control | dose: 50.0 mg/kg/injection, schedule: Q01DX Z (ip), vehicle: saline 91 % of control

CCN(C(=O)CCl)c1ccccc1C
inactive: [5] 91 % of control | [6] 100 % of control

O=C1C=CC(=O)C(SCCC(=O)O)=C1
inactive: [5] 102 % of control | [2] 101 % of control | [6] 97 % of control | [7] 96 % of control

CC(=O)N=c1ccccn1O
inactive: dose: 100.0 mg/kg/injection, schedule: Q04DX002 (ip), vehicle: saline 96 % of control | dose: 200.0 mg/kg/injection, schedule: Q04DX002 (ip), vehicle: saline 105 % of control

O=c1[nH]nc(-c2ccc(Br)cc2)s1
inactive: [8] 101 % of control | [9] 95 % of control | [10] 98 % of control

Cc1cccc(N2CCN(P(=S)(c3ccccc3)N3CCN(c4cccc(C)c4)CC3)CC2)c1
inactive: [2] 89 % of control | [3] 95 % of control | [4] 86 % of control

CN1CC(C)(C)C(=O)c2ccccc21
inactive: dose: 100.0 mg/kg/injection, schedule: Q04DX002 (ip), vehicle: other 95 % of control | dose: 200.0 mg/kg/injection, schedule: Q04DX002 (ip), vehicle: other 103 % of control | dose: 400.0 mg/kg/injection, schedule: Q04DX002 (ip), vehicle: other 103 % of control

O=C(CSc1cc(Cl)ccc1Cl)Nc1cccc(Br)c1
inactive: dose: 50.0 mg/kg/injection, schedule: Q04DX003 (ip), vehicle: other 86 % of control | dose: 100.0 mg/kg/injection, schedule: Q04DX003 (ip), vehicle: other 90 % of control and 92 % of control | dose: 200.0 mg/kg/injection, schedule: Q04DX003 (ip), vehicle: other 89 % of control | dose: 400.0 mg/kg/injection, schedule: Q04DX003 (ip), vehicle: other 87 % of control

O=C(CNC(=O)c1ccccc1)N/N=C\c1c[nH]c2ccccc12
inactive: [6] 97 % of control | [7] 99 % of control | dose: 400.0 mg/kg/injection, schedule: Q01DX009 (ip), vehicle: saline with Tween-80 100 % of control

O=C(Nc1cc([N+](=O)[O-])ccc1Cl)Nc1ccccc1C(F)(F)F
inactive: [11] 104 % of control | [12] 94 % of control | [13] 93 % of control

O=C1CC2CCC1C2Cl (configuration not stated)
inactive: dose: 50.0 mg/kg/injection, schedule: Q04DX003 (ip), vehicle: saline with Tween-80 86 % of control | dose: 100.0 mg/kg/injection, schedule: Q01DX001 (ip), vehicle: saline with Tween-80 97 % of control | dose: 200.0 mg/kg/injection, schedule: Q01DX001 (ip), vehicle: saline with Tween-80 89 % of control

Nc1nc(N)c(C=O)c(Nc2ccc(Br)cc2)n1
inactive: dose: 50.0 mg/kg/injection, schedule: Q01DX001 (ip), vehicle: alcohol 110 % of control | dose: 100.0 mg/kg/injection, schedule: Q01DX001 (ip), vehicle: alcohol 96 % of control | dose: 200.0 mg/kg/injection, schedule: Q01DX001 (ip), vehicle: alcohol 94 % of control | dose: 400.0 mg/kg/injection, schedule: Q01DX001 (ip), vehicle: alcohol 90 % of control

Cc1nn(C)c(N)c1C#N
inactive: dose: 25.0 mg/kg/injection, schedule: Q01DX009 (ip), vehicle: saline 97 % of control | dose: 50.0 mg/kg/injection, schedule: Q01DX009 (ip), vehicle: saline 97 % of control | dose: 100.0 mg/kg/injection, schedule: Q01DX001 (ip), vehicle: Klucel (hydroxypropylcellulose) (HPC) 107 % of control | dose: 100.0 mg/kg/injection, schedule: Q01DX009 (ip), vehicle: saline 111 % of control | dose: 200.0 mg/kg/injection, schedule: Q01DX001 (ip), vehicle: Klucel (hydroxypropylcellulose) (HPC) 104 % of control | dose: 200.0 mg/kg/injection, schedule: Q01DX009 (ip), vehicle: saline 106 % of control | dose: 400.0 mg/kg/injection, schedule: Q01DX001 (ip), vehicle: Klucel (hydroxypropylcellulose) (HPC) 104 % of control | dose: 400.0 mg/kg/injection, schedule: Q01DX009 (ip), vehicle: saline 100 % of control

Cc1cc(C(=O)O)c(CO)c(=O)n1C
inactive: [1] 104 % of control | dose: 200.0 mg/kg/injection, schedule: Q04DX003 (ip), vehicle: water 104 % of control | dose: 400.0 mg/kg/injection, schedule: Q04DX003 (ip), vehicle: water 94 % of control

CC(CO)(CO)N=Cc1ccccc1O.CC(CO)(CO)N=Cc1ccccc1O.[Co]
inactive: dose: 50.0 mg/kg/injection, schedule: Q01DX001 (ip), vehicle: saline 108 % of control | dose: 100.0 mg/kg/injection, schedule: Q01DX001 (ip), vehicle: saline 97 % of control | dose: 200.0 mg/kg/injection, schedule: Q01DX001 (ip), vehicle: saline 106 % of control

C/C=C/C(=O)Nc1ccc(CC)cc1
inactive: [11] 95 % of control | [12] 92 % of control

C/C=C(/Cl)C(=O)O
inactive: dose: 5.0 mg/kg/injection, schedule: Q01DX001 (ip), vehicle: saline 100 % of control | dose: 10.0 mg/kg/injection, schedule: Q01DX001 (ip), vehicle: saline 97 % of control | dose: 20.0 mg/kg/injection, schedule: Q01DX001 (ip), vehicle: saline 97 % of control | dose: 40.0 mg/kg/injection, schedule: Q01DX001 (ip), vehicle: saline 103 % of control | dose: 80.0 mg/kg/injection, schedule: Q01DX001 (ip), vehicle: saline 103 % of control

N=C(N)SCc1c(-c2ccccc2)oc(-c2ccccc2)c1CSC(=N)N
inactive: dose: 6.25 mg/kg/injection, schedule: Q01DX009 (ip), vehicle: saline with Tween-80 103 % of control | dose: 12.5 mg/kg/injection, schedule: Q01DX009 (ip), vehicle: saline with Tween-80 101 % of control | dose: 12.5 mg/kg/injection, schedule: Q04DX003 (ip), vehicle: saline with Tween-80 97 % of control | dose: 25.0 mg/kg/injection, schedule: Q04DX003 (ip), vehicle: saline with Tween-80 101 % of control

O=C(CC(O)(C(F)(F)F)C(F)(F)F)c1cc(CC(=O)C(O)(C(F)(F)F)C(F)(F)F)cc(CC(=O)C(O)(C(F)(F)F)C(F)(F)F)c1
inactive: [8] 100 % of control | [9] 92 % of control | [10] 97 % of control

CCC1(CCCCCl)OCCO1
inactive: [11] 103 % of control | [12] 97 % of control | [13] 103 % of control

COC(=O)N1C2CC=C(C)CC21 (configuration not stated)
inactive: dose: 75.0 mg/kg/injection, schedule: Q01DX001 (ip), vehicle: saline 94 % of control | dose: 150.0 mg/kg/injection, schedule: Q01DX001 (ip), vehicle: saline 104 % of control | dose: 300.0 mg/kg/injection, schedule: Q01DX001 (ip), vehicle: saline 100 % of control

COc1ccc(-c2ccc(OC)c(OC)c2)cc1OC
inactive: [2] 110 % of control | [3] 104 % of control | [4] 110 % of control

CCNC(=O)c1csnn1
inactive: dose: 75.0 mg/kg/injection, schedule: Q01DX001 (ip), vehicle: other 98 % of control | dose: 150.0 mg/kg/injection, schedule: Q01DX001 (ip), vehicle: other 101 % of control | dose: 300.0 mg/kg/injection, schedule: Q01DX001 (ip), vehicle: other 104 % of control

CCCCCCCCCCCCCCCCCC(=O)N/N=C\c1c(O)ccc2ccccc12
inactive: [11] 93 % of control and 90 % of control | [12] 88 % of control | [13] 89 % of control
